Assays:
Settings in all cases: Compound Concentration 10.0 uM, Hit No
[1] = biological target: Uracil-DNA glycosylase (Homo sapiens) (UniProt P13051);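 note: UNG excision on a quenched double-stranded DNA oligo probe, with APE1 added for strand incision and turnover, read as fluorescence at 594 nm as strands separate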
Description: Inhibition of UNG by quantifying inhibition of UNG-mediated cleavage and dissociation of quenched duplex DNA oligonucleotides, measured as fluorescence at 594 nm. To generate a functional strand incision and increase turn-over this assay is coupled to APE1.

[2] = biological target: T1, Endonuclease 8-like 2 (Homo sapiens) (UniProt Q969S2);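 note: fluorescence at 594 nm reports NEIL2 cutting and release of a quenched double-stranded DNA oligo substrate, reduced signal read as inhibition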
T1 sequence (whole entry): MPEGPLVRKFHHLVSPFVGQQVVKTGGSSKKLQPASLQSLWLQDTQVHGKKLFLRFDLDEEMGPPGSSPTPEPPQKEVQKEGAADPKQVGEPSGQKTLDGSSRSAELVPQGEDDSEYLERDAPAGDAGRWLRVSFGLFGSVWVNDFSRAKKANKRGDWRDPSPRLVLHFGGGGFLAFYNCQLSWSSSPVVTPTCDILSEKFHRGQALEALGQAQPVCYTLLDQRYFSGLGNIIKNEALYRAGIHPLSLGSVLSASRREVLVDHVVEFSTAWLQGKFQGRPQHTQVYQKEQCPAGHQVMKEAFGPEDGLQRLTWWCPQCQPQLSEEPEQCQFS
Description: Inhibition of NEIL2 by quantifying inhibition of NEIL2-mediated cleavage and dissociation of quenched duplex DNA oligonucleotides, measured as fluorescence at 594 nm.

[3] = biological target: Endonuclease 8-like 1 (Homo sapiens) (UniProt Q96FI4);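 note: fluorescence at 594 nm from quenched duplex DNA oligonucleotides released by NEIL1 cleavage and strand separation, reported as reduction of this enzyme activity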
Endonuclease 8-like 1 (Homo sapiens), sequence (Q96FI4 whole entry): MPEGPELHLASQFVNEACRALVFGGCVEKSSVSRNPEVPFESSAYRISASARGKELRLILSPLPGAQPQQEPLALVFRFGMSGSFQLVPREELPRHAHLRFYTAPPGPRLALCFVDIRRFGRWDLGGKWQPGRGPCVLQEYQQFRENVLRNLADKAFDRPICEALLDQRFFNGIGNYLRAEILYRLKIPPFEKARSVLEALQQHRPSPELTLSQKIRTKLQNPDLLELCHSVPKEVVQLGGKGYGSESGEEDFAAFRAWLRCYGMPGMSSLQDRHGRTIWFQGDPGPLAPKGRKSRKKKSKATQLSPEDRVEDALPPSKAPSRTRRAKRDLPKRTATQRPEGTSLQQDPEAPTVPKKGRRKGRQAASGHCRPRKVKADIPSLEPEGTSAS
Description: Inhibition of NEIL1 by quantifying inhibition of NEIL1-mediated cleavage and dissociation of quenched duplex DNA oligonucleotides, measured as fluorescence at 594 nm.

[4] = biological target: DNA-3-methyladenine glycosylase (Homo sapiens) (UniProt P29372);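 note: enzyme assay where MPG cuts a quenched duplex DNA oligonucleotide probe, paired with APE1 for strand incision and turnover, read as fluorescence at 594 nm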
DNA-3-methyladenine glycosylase (Homo sapiens), sequence (P29372 whole entry): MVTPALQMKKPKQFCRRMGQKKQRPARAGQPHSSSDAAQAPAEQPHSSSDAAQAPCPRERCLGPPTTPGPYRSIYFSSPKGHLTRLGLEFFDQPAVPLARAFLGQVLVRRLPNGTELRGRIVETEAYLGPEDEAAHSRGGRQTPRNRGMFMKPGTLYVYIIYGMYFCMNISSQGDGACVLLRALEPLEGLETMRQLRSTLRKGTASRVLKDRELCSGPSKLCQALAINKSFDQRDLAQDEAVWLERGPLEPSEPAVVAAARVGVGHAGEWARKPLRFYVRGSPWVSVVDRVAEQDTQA
Description: Inhibition of MPG by quantifying inhibition of MPG-mediated cleavage and dissociation of quenched duplex DNA oligonucleotides, measured as fluorescence at 594 nm. To generate a functional strand incision and increase turn-over this assay is coupled to APE1.

[5] = biological target: T2, Endonuclease III-like protein 1 (Homo sapiens) (UniProt P78549);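 note: enzyme assay tracking NTHL1 cutting and release of a quenched double-stranded DNA oligo substrate, read as fluorescence at 594 nm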
T2 sequence (whole entry): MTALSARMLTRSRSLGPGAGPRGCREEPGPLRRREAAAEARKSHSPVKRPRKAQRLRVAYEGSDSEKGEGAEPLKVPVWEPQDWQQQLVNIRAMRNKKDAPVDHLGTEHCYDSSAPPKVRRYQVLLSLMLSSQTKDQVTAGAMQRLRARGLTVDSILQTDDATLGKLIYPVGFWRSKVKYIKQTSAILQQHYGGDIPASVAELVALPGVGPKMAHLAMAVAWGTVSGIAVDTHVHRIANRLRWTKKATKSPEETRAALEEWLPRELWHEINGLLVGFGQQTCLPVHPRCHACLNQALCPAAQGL
Description: Inhibition of NTHL1 by quantifying inhibition of NTHL1-mediated cleavage and dissociation of quenched duplex DNA oligonucleotides, measured as fluorescence at 594 nm.

[6] = biological target: Methyl-CpG-binding domain protein 4 (Homo sapiens) (UniProt O95243);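 note: MBD4 activity read as fluorescence at 594 nm from cleavage and release of a quenched duplex DNA oligonucleotide, with APE1 coupled to incise the strand and raise turnover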
Methyl-CpG-binding domain protein 4 (Homo sapiens), sequence (O95243 whole entry, the tested form may be a part): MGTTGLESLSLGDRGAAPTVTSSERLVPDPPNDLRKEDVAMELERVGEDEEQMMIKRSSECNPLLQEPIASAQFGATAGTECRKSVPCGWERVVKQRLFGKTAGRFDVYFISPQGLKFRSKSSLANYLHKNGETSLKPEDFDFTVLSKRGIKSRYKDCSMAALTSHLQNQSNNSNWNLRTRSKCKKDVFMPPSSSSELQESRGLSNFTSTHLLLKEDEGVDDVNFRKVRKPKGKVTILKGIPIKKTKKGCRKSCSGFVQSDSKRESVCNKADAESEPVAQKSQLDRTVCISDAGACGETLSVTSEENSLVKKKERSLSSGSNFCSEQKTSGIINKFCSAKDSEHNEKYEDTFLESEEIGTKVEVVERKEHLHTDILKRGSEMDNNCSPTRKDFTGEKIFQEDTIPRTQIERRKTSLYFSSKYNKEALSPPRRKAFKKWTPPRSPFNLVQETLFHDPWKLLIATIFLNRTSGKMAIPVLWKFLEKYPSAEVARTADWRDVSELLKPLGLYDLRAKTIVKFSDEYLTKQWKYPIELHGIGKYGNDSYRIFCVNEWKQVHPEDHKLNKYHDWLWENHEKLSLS
Description: Inhibition of MBD4 by quantifying inhibition of MBD4-mediated cleavage and dissociation of quenched duplex DNA oligonucleotides, measured as fluorescence at 594 nm. To generate a functional strand incision and increase turn-over this assay is coupled to APE1.

[7] = biological target: T3, Adenine DNA glycosylase (Homo sapiens) (UniProt Q9UIF7);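 note: human MUTYH activity read as 594 nm fluorescence from cleavage and release of a quenched DNA duplex, coupled with APE1 for strand incision, lower signal meaning inhibition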
T3 sequence (whole entry): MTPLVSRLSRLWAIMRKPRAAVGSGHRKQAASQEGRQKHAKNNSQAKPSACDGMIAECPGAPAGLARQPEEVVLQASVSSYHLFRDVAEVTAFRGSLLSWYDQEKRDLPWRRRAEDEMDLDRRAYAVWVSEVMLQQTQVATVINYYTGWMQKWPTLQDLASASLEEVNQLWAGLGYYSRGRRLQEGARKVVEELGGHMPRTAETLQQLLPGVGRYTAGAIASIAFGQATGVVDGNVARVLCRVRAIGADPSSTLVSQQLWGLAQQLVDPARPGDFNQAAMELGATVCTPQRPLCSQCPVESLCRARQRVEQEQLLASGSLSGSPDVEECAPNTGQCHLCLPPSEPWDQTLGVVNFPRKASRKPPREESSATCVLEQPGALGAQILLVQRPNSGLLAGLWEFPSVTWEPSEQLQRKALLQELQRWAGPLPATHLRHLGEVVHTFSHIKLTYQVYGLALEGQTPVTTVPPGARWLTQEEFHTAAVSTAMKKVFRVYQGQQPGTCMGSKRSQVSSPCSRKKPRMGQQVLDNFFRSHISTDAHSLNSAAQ
Description: Inhibition of MUTYH by quantifying inhibition of MUTYH-mediated cleavage and dissociation of quenched duplex DNA oligonucleotides, measured as fluorescence at 594 nm. To generate a functional strand incision and increase turn-over this assay is coupled to APE1.

[8] = biological target: G/T mismatch-specific thymine DNA glycosylase (Homo sapiens) (UniProt Q13569);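 note: human TDG cleavage of quenched duplex DNA oligonucleotides coupled to APE1, strand release read as fluorescence at 594 nm, inhibition of TDG activity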
G/T mismatch-specific thymine DNA glycosylase (Homo sapiens), sequence (Q13569 whole entry): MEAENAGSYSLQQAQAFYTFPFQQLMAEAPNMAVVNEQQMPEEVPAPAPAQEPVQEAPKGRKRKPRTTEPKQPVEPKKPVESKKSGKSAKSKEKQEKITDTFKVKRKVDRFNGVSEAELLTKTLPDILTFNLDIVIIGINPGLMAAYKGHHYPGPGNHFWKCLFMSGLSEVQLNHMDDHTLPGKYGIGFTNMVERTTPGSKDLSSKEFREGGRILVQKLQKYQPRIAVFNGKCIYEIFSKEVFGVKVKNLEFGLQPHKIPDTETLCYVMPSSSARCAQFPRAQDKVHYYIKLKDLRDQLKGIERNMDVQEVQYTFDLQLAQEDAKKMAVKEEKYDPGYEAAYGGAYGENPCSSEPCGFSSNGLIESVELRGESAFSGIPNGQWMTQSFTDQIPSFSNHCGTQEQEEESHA
Description: Inhibition of TDG by quantifying inhibition of TDG-mediated cleavage and dissociation of quenched duplex DNA oligonucleotides, measured as fluorescence at 594 nm. To generate a functional strand incision and increase turn-over this assay is coupled to APE1.

[9] = biological target: N-glycosylase/DNA lyase (Homo sapiens) (UniProt O15527);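 note: OGG1 cleavage of a quenched duplex DNA oligonucleotide, coupled to APE1 for strand incision, read as fluorescence at 594 nm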
N-glycosylase/DNA lyase (Homo sapiens), sequence (O15527 whole entry): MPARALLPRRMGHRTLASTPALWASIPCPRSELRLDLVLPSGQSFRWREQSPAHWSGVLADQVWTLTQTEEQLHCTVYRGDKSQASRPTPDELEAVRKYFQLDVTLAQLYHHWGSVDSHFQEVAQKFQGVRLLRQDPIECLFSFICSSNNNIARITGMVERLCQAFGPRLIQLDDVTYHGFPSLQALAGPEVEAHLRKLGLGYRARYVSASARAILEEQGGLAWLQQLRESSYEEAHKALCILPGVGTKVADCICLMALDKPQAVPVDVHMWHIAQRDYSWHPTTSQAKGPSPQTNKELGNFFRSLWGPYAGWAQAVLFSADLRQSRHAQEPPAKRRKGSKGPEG
Description: Inhibition of OGG1 by quantifying inhibition of OGG1-mediated cleavage and dissociation of quenched duplex DNA oligonucleotides, measured as fluorescence at 594 nm. To generate a functional strand incision and increase turn-over this assay is coupled to APE1.

Uracil-DNA glycosylase (Homo sapiens), sequence (P13051 whole entry): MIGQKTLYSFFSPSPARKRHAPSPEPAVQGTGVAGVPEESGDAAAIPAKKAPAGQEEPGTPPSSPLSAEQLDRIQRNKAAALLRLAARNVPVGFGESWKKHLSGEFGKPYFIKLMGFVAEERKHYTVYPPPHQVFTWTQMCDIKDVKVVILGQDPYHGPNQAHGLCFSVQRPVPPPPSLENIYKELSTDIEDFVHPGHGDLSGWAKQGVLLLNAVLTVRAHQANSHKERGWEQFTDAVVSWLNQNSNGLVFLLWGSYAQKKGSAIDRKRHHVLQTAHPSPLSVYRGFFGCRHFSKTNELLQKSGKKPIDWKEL

SMILES	inhibition [1] [%]	inhibition [2] [%]	inhibition [3] [%]	inhibition [4] [%]	inhibition [5] [%]	inhibition [6] [%]	inhibition [7] [%]	inhibition [8] [%]	inhibition [9] [%]
CCCN(CCC)[C@@H]1CCc2ccc3[nH]c(C#N)cc3c2C1	-7.96	9.08	-4.73	27.5	-5.21	35.8	46.8	30	5.74
CCNC(=O)[C@H]1O[C@@H](n2cnc3c(N)nc(NCCc4ccc(CCC(=O)O)cc4)nc32)[C@H](O)[C@@H]1O	-6.16	-6.46	3.42	-2.22	1.39	17.2	11.8	0.161	-9.97
C[C@@H](Cn1c(=O)[nH]/c(=N\c2ccc(Oc3ccccn3)cc2)n(Cc2ccc(Cl)cc2)c1=O)C(=O)O	-3.28	5.25	5.49	14.7	24.5	25.3	14.4	23.6	-4.95
C[S+]([O-])c1ccc(-c2nc(-c3ccc(F)cc3)c(-c3ccncc3)[nH]2)cc1 (configuration not stated)	-3.45	-0.483	-8.51	10.5	15.1	16.5	13.8	17.7	6.37
CCCCC/C=C\C/C=C\C/C=C\C/C=C\CCCC(=O)OC(CO)CO	-9.11	12	4.39	3.34	9.99	28.4	14.2	27	1.41
Cc1cc(NC(=O)NCCN2CCC(O)(Cc3ccccc3)CC2)c2ccccc2n1	-0.672	-1.88		-4.68	-6.04	28.9	17.8	11.4	-6.59
NCCCCN(Cc1nc2ccccc2[nH]1)[C@H]1CCCc2cccnc21	-4.22	6.78	10.7	-6.17	-0.258	-9.01	5.47	0.598	-6.41
COc1cccc(OC)c1-c1cc(C(=O)NC2(C(=O)O)C3CC4CC(C3)CC2C4)nn1-c1ccnc2cc(Cl)ccc12 (configuration not stated)	-7.21	-7.72	-4.95	18.6	24.6	44.5	53.6	45.2	23.9
CC1(C)CC(=O)c2c(SCCO)sc(-c3nccs3)c2C1	-4.5	1.94	-2.21	8.86	28.6	23.5	15.5	13.8	-7.89
COc1ccc(CC(=O)NC(N/C(=N/C#N)Nc2cccc3ncccc23)C(C)(C)C)cc1OC (configuration not stated)	-5.2	1.94	3.12	7.8	16.2	-7.77	7.91	7.3	-8
CN1CCc2cc(Cl)c(O)cc2[C@@H](c2ccccc2)C1	-3.84	3.22	-6.51	10.9	4.7	14.5	14.8	3.73	-2.12
Clc1ccc(C2CC3CCC2N3)cn1 (configuration not stated)	-9.39	-3.41	-1.03	-6.44	7.17	11.8	-3.17	20.8	-8.75

Source: ChEMBL document CHEMBL5665443, “Enzyme Inhibitor Single Concentration assay results for EUbOPEN Chemogenomics Library” (2024)
